From PMC4879371, “Antitrypanosomal Activities and Mechanisms of Action of Novel Tetracyclic Iridoids from Morinda lucida Benth” (Antimicrobial Agents and Chemotherapy, 2016)
“Also recorded” adds a separate entry of the source.

Experiments:
[1] = tested on: T. brucei brucei parasites; experiment: Parasite morphology, DAPI / anti-PFR-2 immunohistochemistry; assay type: cell-based, Trypanosoma brucei brucei; details: 24 h; 5 μM molucidin, 15 μM ML-2-3, 0.43 μM ML-F52
Experimental: (§1) To investigate the effect of the compounds on parasite morphology and their flagellum function, immunohistochemistry using anti-paraflagellum rod protein anti-PFR-2 antibody ([37]), was performed with molucidin-, ML-2-3-, and ML-F52-treated trypanosome parasites. […] Parasites were then harvested after incubation with or without appropriate concentrations of compounds and were fixed with 4% paraformaldehyde in 8-well chamber slides at room temperature for 5 min. Washing steps were carried out with 500 μl of phosphate-buffered saline (PBS) twice and 0.1% Triton X-100 in PBS (PBST) at room temperature for 5 min each. Blocking reagent (500 μl; 3% bovine serum albumin [BSA] in PBS) was added and incubated for 30 min at room temperature. Primary and secondary antibody incubation with parasites was done for 1 h each, and 4′,6-diamidino-2-phenylindole (DAPI) (5 μg/ml DAPI in PBS) staining was done for 10 min. After the washing steps presented above, the slides were mounted using PermaFluor mounting reagent and were covered with coverslips. The slides were observed under an Olympus fluorescence microscope (Olympus BX53) to detect any phenotypic changes in T. brucei brucei parasites.

[2] = MTT cytotoxicity assay, Hs888Lu; assay type: cell-based, human; details: human, Hs888Lu lung cells; Hs888Lu normal lung, 48 h
Experimental: (§2) The cytotoxicity of the compounds to mammalian cells were determined using four human normal cell lines, namely, NB1RGB (skin fibroblast) and HF-19 (lung fibroblast) obtained from the RIKEN Bio Resource Center Cell Bank (Japan) and Chang Liver and Hs888Lu (lung) obtained from the European Collection of Authenticated Cell Cultures (ECACC). NB1RGB and HF-19 were maintained in minimum essential medium-α (MEM-α). Chang Liver and Hs888Lu were grown in Eagle's minimum essential medium (EMEM) and RPMI 1640, respectively. All of these media were supplemented with 10% fetal bovine serum (FBS) and 1% penicillin-streptomycin and were then incubated at 37°C under 5% CO2 in fully humidified conditions.
(§3) Cytotoxicity was determined using a 3-(4,5-dimethylthiazol-2-yl)-2,5-diphenyltetrazolium bromide (MTT) assay. The cells were treated with molucidin, ML-2-3, or ML-F52 at concentrations of ≤50 μM for 48 h. Cells were plated at a density of 0.5 × 10^4 cells/well into 96-well plates. After 24 h of incubation, cells were treated with various concentrations of each of the purified compounds for 48 h. Then, MTT solution was added to each well, and the cells were incubated for another 4 h. The precipitated MTT-formazan product was dissolved in 0.04 N HCl-isopropanol, and the amount of formazan was measured at a wavelength of 595 nm by a microplate reader (Immuno Mini NJ-2300; Nihon InterMed, Tokyo, Japan). Cytotoxicity was calculated as the percentage of live cells relative to the control culture. The selectivity index (SI) was expressed as the ratio of the IC50 obtained for mammalian cells and the IC50 for trypanosomes.

Hs888Lu (lung) = experiment: MTT cytotoxicity assay, Hs888Lu; assay type: cell-based, human; details: IC50 Hs888Lu / IC50 trypanosomes
Experimental: as §2, §3

[3] = tested on: T. brucei brucei (TC-221 strain); assay type: in vivo; details: for survival of mice / death, days postinfection: vehicle control died at day 9
Experimental: Six-week-old BALB/c female mice with an average weight of 20 g were infected with 1 × 10^3 cells of T. brucei brucei (TC-221 strain) and were randomly grouped into four cages containing five mice each. The first 3 groups were treated with 30 mg/kg of body weight of molucidin, ML-2-3, and ML-F52, respectively, 6 h postinfection and continued daily afterward for 5 consecutive days. The last group received physiological saline containing <0.1% of DMSO as a vehicle control. Parasitemia and weight were monitored daily until 20 days postinfection. The experiments were conducted in compliance with the internationally accepted principles for laboratory animal use and care as contained in the Canadian Council on Animal Care guidelines on animal use protocol review.

Chang Liver = experiment: MTT cytotoxicity assay, Chang Liver; assay type: cell-based, human; details: IC50 Chang liver / IC50 trypanosomes
Experimental: as §2, §3

[4] = tested on: paraflagellum rod protein subunit 2, PFR-2; experiment: PFR-2 expression, immunohistochemistry and Western blotting with anti-PFR-2 antibody; assay type: cell-based, Trypanosoma brucei brucei; details: for expression of PFR-2 protein: 24 h, 5 μM molucidin, 15 μM ML-2-3, 0.43 μM ML-F52
Experimental: as §1
Trypanosome parasites were incubated with or without compound in vitro and were lysed with 0.5% NP-40 ([38]). Protein concentration of the lysate was determined using the Bio-Rad protein assay reagents (Bio-Rad, USA). SDS-PAGE was run using Invitrogen NuPAGE 12% Bis-Tris gel. The proteins were blotted on a polyvinylidene difluoride (PVDF) membrane (Immobilon P; Millipore, USA), added with mouse anti-PFR-2 antibody, 1:500 dilution, and incubated at 4°C overnight. The membrane was then incubated with anti-mouse horseradish peroxidase (HRP) antibodies, 1:2,000 dilution, for an hour at room temperature. Chemiluminescence HRP substrates A and B (Immobilon Western; Millipore, USA) were added to the membrane in a ratio of 1:1. Detection was done using the ATTO cooled charge-coupled device (CCD) camera system EzCapture II (ATTO Corporation, Japan).
To investigate the sequence in which the events (apoptosis induction, PFR-2 suppression, and cell cycle alteration) involved in mechanisms of action occur, we examined the time course for the three events using ML-2-3-treated parasites. Trypanosoma brucei parasites were incubated for 0, 0.5, 1.5, 3, 6, and 24 h with 15 μM ML-2-3 and were then subjected to both Nexin assay and Western blot analyses using the PFR-2 antibody. We further investigated the time course of cell cycle alteration using ML-2-3-treated parasites at similar concentrations and incubation periods.

[5] = tested on: GUTat 3.1 strain of the bloodstream form of T. brucei brucei; experiment: alamarBlue in vitro viability test for trypanosome parasites; assay type: cell-based; details: Trypanosoma brucei, 48 h of incubation, read-out: IC50, antitrypanosomal activity
Experimental: The GUTat 3.1 strain of the bloodstream form of T. brucei brucei parasites was used in this study. Parasites were cultured in vitro according to the conditions established previously ([36]). Parasites were used when they reached a confluent concentration of 1 × 10^6 parasites/ml. Estimation of parasitemia was done with the Neubauer counting chamber. Parasites were diluted to a concentration of 3 × 10^5 parasites/ml with HM1-9 medium and were used for the various experiments.
The alamarBlue assay (Life Technologies, USA) was carried out on treated or untreated trypanosome parasites to ascertain their viability. The assay was performed in a 96-well plate following the manufacturer's instructions with modification. Briefly, 1.5 × 10^4 parasites were seeded with varied concentrations of plant material (extracts, fractions, or compounds) ranging from 0.78 μg/ml to […]. Final concentrations of EtOH and dimethyl sulfoxide (DMSO) were kept at <1% and 0.1%, respectively. After incubation of parasites with or without plant extracts or compounds for 24 h at 37°C in 5% CO2, 10% alamarBlue dye was added, and the parasites were incubated another 24 h in darkness. After a total of 48 h, the plate was read for absorbance at 540 nm using the Tecan Sunrise Wako spectrophotometer. The trend curve was drawn to obtain a 50% inhibitory concentration (IC50) of each plant material (extracts, fractions, and compounds).

[6] = 30 mg/kg intraperitoneally, 5 consecutive days

| SMILES | effect on nuclei and kinetoplast (DAPI) [1] | effect on parasite cell form [1] | IC50 at 48 h [2] [µM] | SI (selectivity index) (Hs888Lu (lung)) | toxicity in mice ([3]; mouse, in vivo) | SI (selectivity index) (Chang Liver) | expression of PFR-2 protein [4] | IC50 [5] [nM] | cure for 20 days postinfection [3, 6] [%] | survival of mice / death, days postinfection [3, 6] [days] | time of exposure to significant suppression of PFR-2 protein expression ([4]; 15 μM ML-2-3, time course Western blot) [h] |
| --- | --- | --- | --- | --- | --- | --- | --- | --- | --- | --- | --- |
| COC(=O)C1=CO[C@@H]2O[C@H]3/C(=C\c4ccc(O)c(OC)c4)C(=O)O[C@]34C=C[C@H]1[C@H]24 [molucidin] | intact kinetoplast but totally disintegrated nuclei | stumpy-like parasites | 9.29 | 7.31 | severe toxicity | 7.35 | significant expression of PFR-2 | 1270 |  |  |  |
| CCOC(=O)C1=CO[C@@H]2O[C@H]3/C(=C\c4ccc(O)c(OC)c4)C(=O)O[C@]34C=C[C@H]1[C@H]24 [ML-F52] | fragmented nuclei with normal kinetoplast | abnormal cells that had two sets of kinetoplasts and flagellum with fragmented nuclei | 8.89 | 20.67 |  | 42.16 | suppression of PFR-2 expression; also recorded: suppressed the expression of PFR-2 proteins | 430 | 100 | 20 |  |
| COc1cc(/C=C2/C(=O)O[C@]34C=C[C@@H]5C(C(=O)O)=CO[C@H](O[C@@H]23)[C@@H]54)ccc1O [ML-2-3] | fragmented nuclei with normal kinetoplast | typical short stumpy form | > 50 | >13.33 |  | >13.33 | suppression of PFR-2 expression; also recorded: suppressed the expression of PFR-2 proteins | 3750 |  | 9 | ≤ 0.5 |
